Results: patent US8198273B2, “Compounds and methods for kinase modulation, and indications therefor” (Plexxikon Inc., priority 2009, dated 2012)

Assays:
CYP1A2 = biological target: T1, CYP1A2 (Homo sapiens, UniProt P05177); test: CYP1A2 inhibition (fluorescent substrate); assay type: in vitro ADME; details: CYP1A2, CEC substrate; read-out: Cyp IC50 1A2
T1 sequence (P05177 1-516): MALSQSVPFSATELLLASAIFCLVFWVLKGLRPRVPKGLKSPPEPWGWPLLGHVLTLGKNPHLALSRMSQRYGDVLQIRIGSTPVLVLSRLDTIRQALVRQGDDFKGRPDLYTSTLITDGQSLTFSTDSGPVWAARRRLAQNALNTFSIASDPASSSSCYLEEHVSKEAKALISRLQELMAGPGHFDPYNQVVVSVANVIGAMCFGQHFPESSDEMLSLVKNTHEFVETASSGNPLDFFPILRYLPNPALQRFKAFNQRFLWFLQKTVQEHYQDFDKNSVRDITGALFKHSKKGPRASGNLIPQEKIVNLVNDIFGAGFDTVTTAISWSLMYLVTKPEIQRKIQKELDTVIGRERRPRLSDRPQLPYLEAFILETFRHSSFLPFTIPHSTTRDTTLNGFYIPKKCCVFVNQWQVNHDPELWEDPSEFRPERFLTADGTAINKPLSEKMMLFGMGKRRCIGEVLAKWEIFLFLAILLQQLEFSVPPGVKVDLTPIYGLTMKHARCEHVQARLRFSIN
How it was run: (§1)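 10-pt 1:1 serial dilution in co-factor mix (DMSO stock 100 mM); 10 min preincubation, 37 °C; reaction at 37 °C. Readout: fluorescent metabolite of probe substrate. IC50 from signal vs [compound].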

CYP2D6 = CYP2D6 (Homo sapiens, UniProt P10635); test: CYP2D6 inhibition (fluorescent substrate); assay type: in vitro ADME; details: CYP2D6, AMMC substrate; read-out: Cyp IC50 2D6
Chain of CYP2D6 (P10635 whole entry): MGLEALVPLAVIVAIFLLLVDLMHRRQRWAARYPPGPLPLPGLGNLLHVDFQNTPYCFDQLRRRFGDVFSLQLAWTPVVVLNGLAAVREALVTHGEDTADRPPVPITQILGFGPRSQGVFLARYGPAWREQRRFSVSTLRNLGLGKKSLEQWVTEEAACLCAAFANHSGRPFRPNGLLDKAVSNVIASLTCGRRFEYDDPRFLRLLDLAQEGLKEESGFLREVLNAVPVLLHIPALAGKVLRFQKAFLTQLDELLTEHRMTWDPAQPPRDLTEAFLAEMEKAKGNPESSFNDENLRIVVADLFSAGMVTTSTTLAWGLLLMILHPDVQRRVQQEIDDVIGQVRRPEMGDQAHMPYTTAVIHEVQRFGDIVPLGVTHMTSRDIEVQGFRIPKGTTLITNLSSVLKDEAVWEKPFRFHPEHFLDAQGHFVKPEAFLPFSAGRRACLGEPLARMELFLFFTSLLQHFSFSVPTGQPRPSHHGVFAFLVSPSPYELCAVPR
How it was run: as §1

B-Raf V600E = B-Raf V600E (Homo sapiens, UniProt P15056, V600E); test: B-Raf V600E biochemical kinase inhibition (AlphaScreen, biotin-MEK1 substrate); details: 100 μM ATP
Chain of B-Raf V600E (P15056 whole entry V600E): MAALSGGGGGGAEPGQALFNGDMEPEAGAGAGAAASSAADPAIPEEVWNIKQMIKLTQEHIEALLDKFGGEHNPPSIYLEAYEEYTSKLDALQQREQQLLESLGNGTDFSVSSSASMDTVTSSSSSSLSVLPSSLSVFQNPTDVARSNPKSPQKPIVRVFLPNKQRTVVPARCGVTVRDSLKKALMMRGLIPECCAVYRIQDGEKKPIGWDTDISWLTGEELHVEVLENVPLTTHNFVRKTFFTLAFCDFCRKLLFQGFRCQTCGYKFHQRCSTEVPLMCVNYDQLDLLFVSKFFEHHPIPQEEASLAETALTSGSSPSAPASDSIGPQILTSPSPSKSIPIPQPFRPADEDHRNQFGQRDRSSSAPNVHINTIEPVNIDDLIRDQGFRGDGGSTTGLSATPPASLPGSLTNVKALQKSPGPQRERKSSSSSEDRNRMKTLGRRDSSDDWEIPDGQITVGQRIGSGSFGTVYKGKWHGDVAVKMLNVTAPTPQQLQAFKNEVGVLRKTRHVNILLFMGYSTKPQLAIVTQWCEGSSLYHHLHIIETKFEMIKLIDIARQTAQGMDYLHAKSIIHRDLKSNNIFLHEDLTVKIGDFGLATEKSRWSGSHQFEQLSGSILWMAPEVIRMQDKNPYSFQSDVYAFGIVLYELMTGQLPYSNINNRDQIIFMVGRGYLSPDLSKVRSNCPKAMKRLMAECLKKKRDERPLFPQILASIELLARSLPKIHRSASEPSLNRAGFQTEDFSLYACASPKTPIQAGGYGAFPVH
How it was run: (§2)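 Eight-point compound series (made from a 0.1 mM DMSO stock) tested against each Raf enzyme with biotin-MEK1 substrate and 100 μM final ATP.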

c-Raf-1 = c-Raf-1 (Homo sapiens, UniProt P04049); test: c-Raf-1 biochemical kinase inhibition (AlphaScreen, biotin-MEK1 substrate); details: 100 μM ATP
Chain of c-Raf-1 (P04049 whole entry): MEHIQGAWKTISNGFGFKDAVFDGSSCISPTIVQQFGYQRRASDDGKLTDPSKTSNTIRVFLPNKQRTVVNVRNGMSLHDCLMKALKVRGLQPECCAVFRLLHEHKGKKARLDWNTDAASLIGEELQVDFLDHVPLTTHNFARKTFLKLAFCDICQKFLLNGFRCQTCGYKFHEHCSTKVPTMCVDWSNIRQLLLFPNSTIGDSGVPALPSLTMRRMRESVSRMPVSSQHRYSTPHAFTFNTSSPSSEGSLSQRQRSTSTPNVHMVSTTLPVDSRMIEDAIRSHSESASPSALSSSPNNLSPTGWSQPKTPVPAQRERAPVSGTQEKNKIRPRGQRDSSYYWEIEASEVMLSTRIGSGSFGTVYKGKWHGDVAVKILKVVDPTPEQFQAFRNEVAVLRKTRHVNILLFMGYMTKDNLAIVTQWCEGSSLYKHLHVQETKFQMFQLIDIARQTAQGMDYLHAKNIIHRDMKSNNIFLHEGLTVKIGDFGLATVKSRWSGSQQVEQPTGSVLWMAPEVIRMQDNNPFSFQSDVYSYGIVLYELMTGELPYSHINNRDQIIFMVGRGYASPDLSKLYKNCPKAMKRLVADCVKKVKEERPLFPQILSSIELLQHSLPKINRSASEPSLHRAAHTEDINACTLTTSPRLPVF
How it was run: as §2

SMILES	IC50 (CYP1A2)	IC50 (CYP2D6)	IC50 (B-Raf V600E)	IC50 (c-Raf-1)
N#Cc1cnc2[nH]cc(C(=O)c3cccc(NS(=O)(=O)c4ccccc4)c3F)c2c1 [P-2056, N-[3-(5-Cyano-1H-pyrrolo[2,3-b]pyridine-3-carbonyl)-2-fluoro-phenyl]-benzenesulfonamide]	> 10 µM	> 10 µM	< 0.01 µM	< 0.01 µM
Cc1cnc2[nH]cc(C(=O)c3c(F)ccc(NS(=O)(=O)c4cccnc4)c3F)c2c1 [P-2069, Pyridine-3-sulfonic acid [2,4-difluoro-3-(5-methyl-1H-pyrrolo[2,3-b]pyridine-3-carbonyl)-phenyl]-amide]	> 10 µM	> 10 µM	< 0.01 µM	< 0.01 µM
COc1ncc(-c2cnc3[nH]cc(C(=O)c4c(F)ccc(NS(=O)(=O)c5cc(F)ccc5F)c4F)c3c2)cn1 [P-2042, N-{2,4-Difluoro-3-[5-(2-methoxy-pyrimidin-5-yl)-1H-pyrrolo[2,3-b]pyridine-3-carbonyl]-phenyl}-2,5-difluoro-benzenesulfonamide]	> 10 µM	> 10 µM	< 0.01 µM	< 0.01 µM
Cc1cnc2[nH]cc(C(=O)c3c(F)ccc(NS(=O)(=O)c4cc(F)ccc4F)c3F)c2c1 [P-2015, N-[2,4-Difluoro-3-(5-methyl-1H-pyrrolo[2,3-b]pyridine-3-carbonyl)-phenyl]-2,5-difluoro-benzenesulfonamide]	> 10 µM	> 10 µM	< 0.01 µM	< 0.01 µM
CCCS(=O)(=O)Nc1ccc(F)c(C(=O)c2c[nH]c3ncc(C#CCOC)cc23)c1F [P-2239, Propane-1-sulfonic acid {2,4-difluoro-3-[5-(3-methoxy-prop-1-ynyl)-1H-pyrrolo[2,3-b]pyridine-3-carbonyl]-phenyl}-amide]	> 10 µM	> 10 µM	< 0.01 µM	< 0.01 µM
CCCS(=O)(=O)Nc1ccc(F)c(C(=O)c2c[nH]c3ncc(-c4ccc(OCCN5CCOCC5)nc4)cc23)c1F [P-2232, Propane-1-sulfonic acid (2,4-difluoro-3-{5-[6-(2-morpholin-4-yl-ethoxy)-pyridin-3-yl]-1H-pyrrolo[2,3-b]pyridine-3-carbonyl}-phenyl)-amide]	> 10 µM	> 10 µM	< 0.01 µM	< 0.01 µM
C#Cc1cnc2[nH]cc(C(=O)c3c(F)ccc(NS(=O)(=O)CCC)c3F)c2c1 [P-2260, Propane-1-sulfonic acid [3-(5-ethynyl-1H-pyrrolo[2,3-b]pyridine-3-carbonyl)-2,4-difluoro-phenyl]-amide]	> 10 µM	> 10 µM	< 0.01 µM	< 0.01 µM
COc1ncc(-c2cnc3[nH]cc(C(=O)c4c(F)ccc(NS(=O)(=O)c5cccc(F)c5)c4F)c3c2)cn1 [P-2045, N-{2,4-Difluoro-3-[5-(2-methoxy-pyrimidin-5-yl)-1H-pyrrolo[2,3-b]pyridine-3-carbonyl]-phenyl}-3-fluoro-benzenesulfonamide]	> 10 µM	> 10 µM	< 0.1 µM	< 0.01 µM
COc1ccnc2[nH]cc(C(=O)c3c(F)ccc(NS(=O)(=O)c4cccnc4)c3F)c12 [P-2073, Pyridine-3-sulfonic acid [2,4-difluoro-3-(4-methoxy-1H-pyrrolo[2,3-b]pyridine-3-carbonyl)-phenyl]-amide]	> 10 µM	> 10 µM	< 0.1 µM	< 0.01 µM
CCCS(=O)(=O)Nc1ccc(F)c(C(=O)c2c[nH]c3ncc(-c4ccc(S(=O)(=O)NC)cc4)cc23)c1F [P-2167, 4-{3-[2,6-Difluoro-3-(propane-1-sulfonylamino)-benzoyl]-1H-pyrrolo[2,3-b]pyridin-5-yl}-N-methyl-benzenesulfonamide]	> 10 µM	> 10 µM	< 0.01 µM	< 0.01 µM
COc1ccnc2[nH]cc(C(=O)c3c(F)ccc(NS(=O)(=O)c4cccc(F)c4)c3F)c12 [P-2023, N-[2,4-Difluoro-3-(4-methoxy-1H-pyrrolo[2,3-b]pyridine-3-carbonyl)-phenyl]-3-fluoro-benzenesulfonamide]	> 10 µM	> 10 µM	< 0.01 µM	< 0.01 µM
CCCS(=O)(=O)Nc1ccc(F)c(C(=O)c2c[nH]c3ncc(-c4ccc(NS(C)(=O)=O)cc4)cc23)c1F [P-2165, Propane-1-sulfonic acid {2,4-difluoro-3-[5-(4-methanesulfonylamino-phenyl)-1H-pyrrolo[2,3-b]pyridine-3-carbonyl]-phenyl}-amide]	> 10 µM	> 10 µM	< 0.01 µM	< 0.01 µM
CCCS(=O)(=O)Nc1ccc(F)c(C(=O)c2c[nH]c3ncc(-c4ccc(OCCCN5CCCC5)nc4)cc23)c1F [P-2235, Propane-1-sulfonic acid (2,4-difluoro-3-{5-[6-(3-pyrrolidin-1-yl-propoxy)-pyridin-3-yl]-1H-pyrrolo[2,3-b]pyridine-3-carbonyl}-phenyl)-amide]	> 10 µM	> 10 µM	< 0.01 µM	< 0.01 µM
CCCS(=O)(=O)Nc1ccc(F)c(C(=O)c2c[nH]c3ncc(-c4ccc(S(=O)(=O)NC5CC5)cc4)cc23)c1F [P-2168, N-Cyclopropyl-4-{3-[2,6-difluoro-3-(propane-1-sulfonylamino)-benzoyl]-1H-pyrrolo[2,3-b]pyridin-5-yl}-benzenesulfonamide]	> 10 µM	> 10 µM	< 0.01 µM	< 0.01 µM
CCCS(=O)(=O)Nc1ccc(F)c(C(=O)c2c[nH]c3ncc(-c4ccc(S(=O)(=O)N5CCOCC5)cc4)cc23)c1F [P-2166, Propane-1-sulfonic acid (2,4-difluoro-3-{5-[4-(morpholine-4-sulfonyl)-phenyl]-1H-pyrrolo[2,3-b]pyridine-3-carbonyl}-phenyl)-amide]	> 10 µM	> 10 µM	< 0.01 µM	< 0.01 µM
CCCS(=O)(=O)Nc1ccc(F)c(C(=O)c2c[nH]c3ncc(-c4ccc(S(=O)(=O)N(C)C)cc4)cc23)c1F [P-2185, 4-{3-[2,6-Difluoro-3-(propane-1-sulfonylamino)-benzoyl]-1H-pyrrolo[2,3-b]pyridin-5-yl}-N,N-dimethyl-benzenesulfonamide]	> 10 µM	> 10 µM	< 0.01 µM	< 0.01 µM
O=C(c1c(F)ccc(NS(=O)(=O)c2c(F)cccc2F)c1F)c1c[nH]c2ncc(Cl)cc12 [P-2003, N-[3-(5-Chloro-1H-pyrrolo[2,3-b]pyridine-3-carbonyl)-2,4-difluoro-phenyl]-2,6-difluoro-benzenesulfonamide]	> 10 µM	> 10 µM	< 0.1 µM	< 0.01 µM
Cc1cnc2[nH]cc(C(=O)c3c(F)ccc(NS(=O)(=O)c4c(F)cccc4F)c3F)c2c1 [P-2024, N-[2,4-Difluoro-3-(5-methyl-1H-pyrrolo[2,3-b]pyridine-3-carbonyl)-phenyl]-2,6-difluoro-benzenesulfonamide]	> 10 µM	> 10 µM	< 0.1 µM	< 0.01 µM
N#Cc1ccnc2[nH]cc(C(=O)c3c(F)ccc(NS(=O)(=O)c4cc(F)ccc4F)c3F)c12 [P-2036, N-[3-(4-Cyano-1H-pyrrolo[2,3-b]pyridine-3-carbonyl)-2,4-difluoro-phenyl]-2,5-difluoro-benzenesulfonamide]	> 10 µM	> 10 µM	< 0.01 µM	< 0.01 µM
